Results: the supplement of paper PMC10307832

Legend:
Test in all cases: relative viability (nuclei count vs DMSO), 5 days (fraction); higher = more cells survive
Imatinib + Foretinib = compound: Cc1ccc(NC(=O)c2ccc(CN3CCN(C)CC3)cc2)cc1Nc1nccc(-c2cccnc2)n1 [Imatinib] + COc1cc2c(Oc3ccc(NC(=O)C4(C(=O)Nc5ccc(F)cc5)CC4)cc3F)ccnc2cc1OCCCN1CCOCC1 [Foretinib] (partner 0.25 µM)
How it was run: (§1)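 For relative viability, nuclei counts in treated wells were divided by those in vehicle wells. Lung cancer cell lines had been pin-tool dosed in 1536-well plates the day after seeding and cultured for 5 days, then fixed and stained in one step (final 0.05% Triton X-100, 1% formaldehyde, 1 ug/ml Hoechst) and imaged at 4×. Doses were one drug alone or a fixed anchor-drug dose plus five library-drug doses (not always all listed) in √10 steps, and values are duplicate-plate medians.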

Imatinib + Trametinib = compound: Cc1ccc(NC(=O)c2ccc(CN3CCN(C)CC3)cc2)cc1Nc1nccc(-c2cccnc2)n1 [Imatinib] + CC(=O)Nc1cccc(-n2c(=O)n(C3CC3)c(=O)c3c(Nc4ccc(I)cc4F)n(C)c(=O)c(C)c32)c1 [Trametinib] (partner 0.02 µM)
How it was run: as §1

Imatinib + Bortezomib = compound: Cc1ccc(NC(=O)c2ccc(CN3CCN(C)CC3)cc2)cc1Nc1nccc(-c2cccnc2)n1 [Imatinib] + CC(C)C[C@H](NC(=O)[C@H](Cc1ccccc1)NC(=O)c1cnccn1)B(O)O [Bortezomib] (partner 0.002 µM)
How it was run: as §1

Imatinib + Palbociclib = compound: Cc1ccc(NC(=O)c2ccc(CN3CCN(C)CC3)cc2)cc1Nc1nccc(-c2cccnc2)n1 [Imatinib] + CC(=O)c1c(C)c2cnc(Nc3ccc(N4CCNCC4)cn3)nc2n(C2CCCC2)c1=O [Palbociclib] (partner 0.5 µM)
How it was run: as §1

Cell Line	relative viability (Imatinib + Foretinib; first compound 0.02 µM)	relative viability (Imatinib + Foretinib; first compound 0.06325 µM)	relative viability (Imatinib + Foretinib; first compound 0.6325 µM)	relative viability (Imatinib + Foretinib; first compound 2 µM)	relative viability (Imatinib + Trametinib; first compound 0.02 µM)	relative viability (Imatinib + Trametinib; first compound 0.06325 µM)	relative viability (Imatinib + Trametinib; first compound 0.2 µM)	relative viability (Imatinib + Trametinib; first compound 0.6325 µM)	relative viability (Imatinib + Trametinib; first compound 2 µM)	relative viability (Imatinib + Bortezomib; first compound 0.02 µM)	relative viability (Imatinib + Bortezomib; first compound 0.06325 µM)	relative viability (Imatinib + Bortezomib; first compound 0.2 µM)	relative viability (Imatinib + Bortezomib; first compound 0.6325 µM)	relative viability (Imatinib + Palbociclib; first compound 0.02 µM)	relative viability (Imatinib + Palbociclib; first compound 0.06325 µM)	relative viability (Imatinib + Palbociclib; first compound 0.2 µM)	relative viability (Imatinib + Palbociclib; first compound 0.6325 µM)	relative viability (Imatinib + Palbociclib; first compound 2 µM)	relative viability (Imatinib + Foretinib; first compound 0.2 µM)	relative viability (Imatinib + Bortezomib; first compound 2 µM)
COR-L 105	1.2	1.23	0.948	1.08	0.44	0.495	0.452	0.433	0.419	1.08	0.871	0.73	0.636	0.425	0.367	0.454	0.395	0.428	–	–
NCI-H1666	0.926	0.911	1.15	0.966	0.82	0.855	0.823	1.09	0.924	0.76	0.796	0.837	0.859	0.678	0.628	0.642	0.705	0.621	0.943	0.652
NCI-H1993	0.817	0.886	0.705	0.756	0.45	0.482	0.622	0.447	0.584	–	–	0.954	1.11	0.684	0.677	0.674	0.723	0.699	0.783	1.02
H3255	0.791	0.405	0.914	0.709	0.589	–	0.635	0.616	0.609	0.796	–	0.729	0.699	0.316	0.325	0.317	0.338	0.308	–	0.7
HARA	0.836	–	0.886	0.971	0.583	0.574	0.633	0.467	0.727	0.952	1.25	1.5	1.09	0.262	–	0.264	0.281	0.262	0.976	1.1
NCI-H661	1	1.04	0.94	1.02	0.62	0.419	0.649	0.586	0.593	0.81	0.613	0.821	0.607	0.428	0.368	0.393	0.394	0.412	1.1	0.852
NCI-H2347	–	–	0.703	1.1	0.35	–	0.309	0.285	0.273	0.846	–	1.04	1	0.498	–	0.425	0.424	0.405	0.905	0.876
LU99A	0.772	0.879	0.857	0.772	0.53	0.638	0.517	0.556	0.318	1.34	1.19	1.08	1.23	0.394	0.424	0.411	0.413	0.454	0.894	1.03
A-427	1.13	–	0.946	1.01	0.745	0.786	0.757	0.76	0.712	1.11	–	1.11	1.05	0.533	0.555	0.51	0.514	0.543	1	0.853
NCI-H2023	0.87	–	–	0.776	0.729	0.6	0.564	–	0.618	1.08	0.425	1.16	0.925	0.537	0.494	0.387	–	0.345	0.873	1.02
NCI-H727	0.969	0.898	0.712	0.834	0.334	–	0.411	0.392	0.411	0.93	0.812	–	0.868	0.577	–	0.599	0.569	0.601	0.891	0.745
BEN	0.774	–	0.701	0.602	1.09	1.02	1.05	1.1	1.1	0.975	0.641	0.796	0.79	0.469	0.541	0.488	0.458	0.467	0.564	0.581
NCI-H2228	0.905	–	0.886	0.899	0.663	0.338	0.467	0.507	0.605	1.13	0.782	1.14	1.01	1.06	0.73	0.664	0.916	0.697	0.891	0.895
PC-14	0.934	0.84	0.934	0.983	1.01	1.18	1.11	0.765	0.897	0.923	0.911	0.96	0.949	0.655	0.633	0.558	0.524	0.542	1.08	0.844
LOU-NH91	0.943	0.923	0.929	0.879	0.801	0.782	0.819	0.83	0.754	0.557	0.517	0.51	0.423	0.524	0.543	0.547	0.572	0.496	0.891	0.479
RERF-LC-KJ	0.909	0.757	0.794	0.834	0.806	0.97	0.936	0.909	0.771	1.13	1.1	1.32	–	1.11	1.23	1.07	0.981	1.09	–	0.909
NCI-H647	1.51	1.27	1.25	1.06	0.512	0.414	0.563	0.365	0.458	1.11	1.11	1.73	1.02	0.532	0.39	0.402	0.375	0.407	1.57	0.872
LCLC-103H	–	0.744	0.679	0.869	0.752	0.673	0.742	0.655	0.658	1.08	–	–	1.13	0.465	0.499	0.457	0.434	0.418	0.565	–

Cell Line	relative viability (Imatinib + Foretinib; first compound 0.02 µM)	relative viability (Imatinib + Foretinib; first compound 0.06325 µM)	relative viability (Imatinib + Foretinib; first compound 0.6325 µM)	relative viability (Imatinib + Foretinib; first compound 2 µM)	relative viability (Imatinib + Trametinib; first compound 0.02 µM)	relative viability (Imatinib + Trametinib; first compound 0.06325 µM)	relative viability (Imatinib + Trametinib; first compound 0.2 µM)	relative viability (Imatinib + Trametinib; first compound 0.6325 µM)	relative viability (Imatinib + Trametinib; first compound 2 µM)	relative viability (Imatinib + Bortezomib; first compound 0.02 µM)	relative viability (Imatinib + Bortezomib; first compound 0.06325 µM)	relative viability (Imatinib + Bortezomib; first compound 0.2 µM)	relative viability (Imatinib + Bortezomib; first compound 0.6325 µM)	relative viability (Imatinib + Palbociclib; first compound 0.02 µM)	relative viability (Imatinib + Palbociclib; first compound 0.06325 µM)	relative viability (Imatinib + Palbociclib; first compound 0.2 µM)	relative viability (Imatinib + Palbociclib; first compound 0.6325 µM)	relative viability (Imatinib + Palbociclib; first compound 2 µM)	relative viability (Imatinib + Foretinib; first compound 0.2 µM)	relative viability (Imatinib + Bortezomib; first compound 2 µM)
NCI-H1975	1.09	0.986	0.954	0.871	0.364	0.273	0.375	0.41	0.326	0.484	0.437	0.338	0.304	0.662	0.49	0.566	0.631	0.563	0.879	0.356
EPLC-272H	0.938	–	0.558	0.59	0.256	–	–	0.295	0.268	0.98	–	1.15	1.06	0.309	–	–	0.34	0.297	0.819	1.06
NCI-H520	0.616	1.2	0.757	0.903	0.775	0.531	0.669	0.674	0.8	0.781	0.639	0.476	0.558	0.25	0.21	0.198	0.242	0.213	0.64	0.512
ChaGo-K-1	0.921	0.936	0.916	0.958	0.927	–	0.833	0.81	0.871	0.975	1.37	1.01	1.15	0.988	–	0.982	0.871	0.879	0.916	–
NCI-H1734	1.06	1.2	0.776	0.87	0.739	–	0.689	0.825	0.71	1.3	–	1.02	0.938	0.348	–	0.402	0.346	0.351	0.939	–
NCI-H1755	0.917	1.02	0.948	–	0.793	0.811	0.839	0.782	0.725	1.13	1.09	1.03	–	0.438	0.496	0.436	0.429	0.423	0.98	0.928
NCI-H2087	1.2	–	1.05	0.976	0.179	–	0.221	0.189	–	0.868	0.963	0.689	0.727	0.192	–	0.188	0.243	–	–	0.604
EMC-BAC-2	1.05	1.12	0.973	1.02	0.887	1	0.904	1.07	0.853	1.11	1.11	1.21	1.16	0.525	0.571	0.514	0.553	0.517	1.09	1.07
NCI-H23	1.13	1.15	1.07	1.13	0.389	0.393	0.376	0.371	0.379	1.29	0.95	1.13	1.03	0.455	0.66	0.521	0.467	0.479	1.2	–
HCC-366	0.998	–	0.982	1.01	0.423	0.346	0.45	0.321	0.432	1.46	–	1.5	1.07	0.435	0.425	0.502	0.35	0.412	0.942	0.929
HCC-827	1.05	1.04	1.04	0.962	0.483	0.517	0.646	0.562	0.515	–	1	1.04	1.02	0.474	0.557	0.516	0.461	0.455	1.05	–
NCI-H1915	1.17	–	1.05	1.08	0.328	–	0.293	0.304	0.312	1.04	–	–	–	0.523	–	0.556	0.456	0.518	1.25	–
NCI-H1437	1.37	1.26	1.22	1.24	0.569	0.345	0.607	0.544	0.494	0.697	0.528	0.541	0.432	0.329	0.288	0.324	0.343	0.266	1.33	0.547
CAL-12T	1.09	–	1.16	1.16	0.336	0.324	0.321	0.411	0.398	1.07	1.1	0.927	0.968	0.374	0.412	0.535	0.496	0.444	1.1	1.02
HOP-62	1.27	–	0.994	1.12	0.376	–	0.359	0.357	0.401	1.14	–	1.19	0.732	0.503	–	0.516	0.408	0.398	1.23	0.598
UMC-11	0.981	1.31	1.14	1.11	0.706	0.736	0.643	0.896	0.717	0.707	0.841	0.939	0.844	0.333	0.337	0.333	0.33	0.269	0.973	0.668
NCI-H2126	1.36	0.958	1.02	–	0.525	0.43	0.565	0.57	0.574	1.12	–	1.19	1.05	0.375	0.352	0.37	0.368	0.321	1.31	1.12
